# In PubChem BioAssay (NCI):
# Values joined by “and” are separate entries in the source; they are usually repeats but may differ in a detail not shown here. Identical values can stand only once.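 Assay format: 96-well plates, 48-hour exposure. Abbreviation: GI50, concentration required for 50% inhibition of growth. Definition used: TGI = concentration required for complete inhibition of growth.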
# Experiments:
# Test in all cases: growth of human tumour cells (NCI), 48 h
# [1] = system: DMS 114 small cell lung
# [2] = system: HOP-18 NSCLC
# [3] = system: K-562 leukemia
# [4] = system: NCI-H460 lung
# [5] = system: SF-295 CNS
# [6] = system: SN12C renal
# [7] = system: KM20L2 colon
# [8] = system: MCF7 breast
# [9] = system: MDA-MB-231 breast
# [10] = system: T-47D breast
smiles,measurement,setting,value
CCCCCCCCOCC(O)COC (stereo not drawn),TGI,[1],> 100 µM
same,TGI,[2],> 100 µM
same,TGI,[3],> 100 µM
same,TGI,[4],> 100 µM
same,TGI,[5],> 100 µM
same,TGI,[6],> 100 µM
NC(N)=Nc1nc2cc(N)ccc2o1,TGI,[2],> 100 µM
same,TGI,[3],> 100 µM
same,TGI,[7],> 100 µM
same,TGI,[4],> 100 µM
same,TGI,[5],> 100 µM
same,TGI,[6],> 100 µM
COc1cc(OC)c(Oc2cccc(OC)c2OC)c(OC)c1,TGI,[1],> 100 µM
same,TGI,[2],89.5 µM
same,TGI,[3],> 100 µM
same,TGI,[7],> 100 µM
same,TGI,[4],> 100 µM
same,TGI,[5],> 100 µM
same,TGI,[6],> 100 µM
COc1cc2c3c(c1OC)C1(C=CC(=O)C=C1)CC3N(C(=O)OC(C)(C)C(Cl)(Cl)Cl)CC2 (stereo not drawn),TGI,[1],22 µM
same,TGI,[2],50.4 µM
same,TGI,[3],50.2 µM
same,TGI,[7],25.2 µM
same,TGI,[4],30.8 µM
same,TGI,[5],28.9 µM
same,TGI,[6],26.6 µM
O=C(Nc1ccc(Cl)cc1Cl)c1c/c(=N\O)c2ccc(O)cc2o1,TGI,[1],> 100 µM
same,TGI,[2],> 100 µM
same,TGI,[3],> 100 µM
same,TGI,[7],> 100 µM
same,TGI,[4],> 100 µM
same,TGI,[5],> 100 µM
same,TGI,[6],> 100 µM
COC(=O)c1ccc2n[se]nc2c1,TGI,[1],> 100 µM
same,TGI,[2],> 100 µM
same,TGI,[3],> 100 µM
same,TGI,[7],> 100 µM
same,TGI,[4],> 100 µM
same,TGI,[5],> 100 µM
same,TGI,[6],> 100 µM
CC(C)(C)NC(=O)C12C3C4C1C1C2C3C41I (stereo not drawn),TGI,[1],> 100 µM
same,TGI,[3],> 100 µM
same,TGI,[7],> 100 µM
same,TGI,[4],> 100 µM
same,TGI,[5],> 100 µM
same,TGI,[6],> 100 µM
C[N+](C)(C)CC(=O)NC(=O)N/N=C\C(CC#N)CN(Cc1ccccc1)Cc1ccccc1 (stereo not drawn),TGI,[1],> 100 µM
same,TGI,[2],> 100 µM
same,TGI,[3],> 100 µM
same,TGI,[7],> 100 µM
same,TGI,[4],> 100 µM
same,TGI,[5],> 100 µM
same,TGI,[6],> 100 µM
CN1CCN(c2nc(NCCNc3ccnc4cc(Cl)ccc34)c3ccccc3n2)CC1,GI50,[3],0.721 µM
same,TGI,[3],3.82 µM
same,GI50,[8],1 µM
same,TGI,[8],13.9 µM
same,GI50,[9],1.37 µM
same,TGI,[9],3.14 µM
same,GI50,[4],1.7 µM
same,TGI,[4],6.49 µM
same,GI50,[5],1.79 µM
same,TGI,[5],3.45 µM
same,GI50,[6],2.03 µM
same,TGI,[6],5.6 µM
same,GI50,[10],1.94 µM
same,TGI,[10],4.79 µM
CCCCCCCC(=O)SCC/C=C/[C@@H]1CC(=O)NCc2cccc(n2)CN(Cc2ccc(Cl)cc2)CC(=O)N[C@@H](C(C)C)C(=O)O1,GI50,[3],11 µM
same,TGI,[3],> 100 µM
same,GI50,[8],12.1 µM
same,TGI,[8],> 100 µM
same,GI50,[9],11.7 µM
same,TGI,[9],68.8 µM
same,GI50,[4],5.45 µM
same,TGI,[4],> 100 µM
same,GI50,[5],4.45 µM
same,TGI,[5],20.3 µM
same,GI50,[6],22.8 µM
same,TGI,[6],> 100 µM
same,GI50,[10],29.3 µM
same,TGI,[10],98.7 µM
O=c1c2ccccc2oc2nccnc12,TGI,[1],> 100 µM
same,TGI,[2],> 100 µM
same,TGI,[3],> 100 µM
same,TGI,[7],> 100 µM
same,TGI,[4],> 100 µM
same,TGI,[5],> 100 µM
same,TGI,[6],> 100 µM
NNC(=S)N/N=C(\c1nc2ccc(Cl)cc2[nH]c1=O)C(O)c1ccc(Cl)cc1Cl (stereo not drawn),TGI,[1],> 100 µM
same,TGI,[2],> 100 µM
same,TGI,[3],> 100 µM
same,TGI,[7],> 100 µM
same,TGI,[4],> 100 µM
same,TGI,[5],> 100 µM
same,TGI,[6],> 100 µM
Cn1c(=O)c(C2c3ccccc3Oc3c2c(=O)n(C)c2ccccc32)c(O)c2ccccc21 (stereo not drawn),TGI,[1],> 100 µM
same,TGI,[2],> 100 µM
same,TGI,[3],> 100 µM
same,TGI,[7],> 100 µM
same,TGI,[4],> 100 µM
same,TGI,[5],> 100 µM
same,TGI,[6],> 100 µM
CCCCCc1c(C)[nH]c(/C=C2\N=C(c3ccc[nH]3)C=C2Oc2ccc(OC)cc2)c1C,GI50,[3],0.0719 µM and 0.0435 µM
same,TGI,[3],> 100 µM
same,GI50,[8],0.0667 µM and 0.0358 µM
same,TGI,[8],1.21 µM and 1.15 µM
same,GI50,[9],0.0833 µM and 0.0117 µM
same,GI50,[4],0.085 µM and 0.038 µM
same,TGI,[4],1.17 µM
same,GI50,[5],0.18 µM and 0.0775 µM
same,TGI,[5],0.735 µM and 0.437 µM
same,GI50,[6],0.2 µM and 0.0483 µM
same,TGI,[6],1.54 µM and 0.418 µM
same,GI50,[10],0.193 µM and 0.0295 µM
same,TGI,[10],0.968 µM and 1.24 µM
O=C(N/C(=C\c1cc(Cl)ccc1Cl)c1nc2ccccc2[nH]1)c1ccccc1,TGI,[1],> 100 µM
same,TGI,[3],76.6 µM
same,TGI,[7],> 100 µM
same,TGI,[5],> 100 µM
same,TGI,[6],> 100 µM
COc1ccc(-c2cc(-c3ccco3)c(C#N)c(=O)n2C2OC(OC(=O)c3ccccc3)C(OC(=O)c3ccccc3)C2OC(=O)c2ccccc2)cc1 (stereo not drawn),TGI,[1],> 100 µM
same,TGI,[2],> 100 µM
same,TGI,[3],> 100 µM
same,TGI,[7],> 100 µM
same,TGI,[4],> 100 µM
same,TGI,[5],> 100 µM
same,TGI,[6],> 100 µM
Cc1cccc2c1NC(c1c(C)[nH]c3ccccc13)C2 (stereo not drawn),TGI,[1],> 100 µM
same,TGI,[2],> 100 µM
same,TGI,[3],> 100 µM
same,TGI,[7],> 100 µM
same,TGI,[4],> 100 µM
same,TGI,[5],> 100 µM
same,TGI,[6],> 100 µM
Nc1ccc(Cl)cc1.Nc1ccc(Cl)cc1.Nc1ccc(Cl)cc1.O=C([O-])C(=O)[O-].O=C([O-])C(=O)[O-].[H+].[Ru+5],GI50,[1],0.23 µM
same,GI50,[2],> 100 µM
same,TGI,[2],> 100 µM
same,GI50,[3],< 0.0169 µM
same,TGI,[3],> 100 µM
same,GI50,[7],> 100 µM
same,TGI,[7],> 100 µM
same,GI50,[4],1.05 µM
same,TGI,[4],> 100 µM
same,GI50,[5],0.127 µM
same,GI50,[6],> 24.5 µM
same,TGI,[6],> 100 µM
Cc1cc(C)c(-c2noc(-c3ccc(Cl)cc3)c2C2=NCCN2)c(C)c1,TGI,[2],> 100 µM
same,TGI,[3],37.4 µM
same,TGI,[7],54 µM
same,TGI,[4],32.1 µM
same,TGI,[5],27.6 µM
same,TGI,[6],45.5 µM
O=C1/C=C(/c2ccc(O)cc2)[C@H](O)Cc2ccc(OC3OC(CO)C(O)C(O)C3O)cc2O1 (stereo partly drawn) (tested in a mixture with another compound),TGI,[1],> 100 µM
same,TGI,[7],> 100 µM
same,TGI,[4],> 100 µM
same,TGI,[5],> 100 µM
same,TGI,[6],> 100 µM
O=C1c2cc(Br)ccc2-c2c1c1ccccc1c(=O)n2CCCCl,GI50,[3],34.8 µM
same,TGI,[3],> 100 µM
same,GI50,[8],1.61 µM
same,TGI,[8],> 100 µM
same,GI50,[9],13.1 µM
same,TGI,[9],37.1 µM
same,GI50,[4],7.54 µM
same,TGI,[4],> 100 µM
same,GI50,[5],4.29 µM
same,TGI,[5],21.4 µM
same,GI50,[6],14.1 µM
same,TGI,[6],55.9 µM
same,GI50,[10],> 100 µM
same,TGI,[10],> 100 µM
COc1ncn(C2C=C(CO)C(O)C2O)c(=O)n1 (stereo not drawn),TGI,[1],> 100 µM
same,TGI,[2],> 100 µM
same,TGI,[3],> 100 µM
same,TGI,[7],> 100 µM
same,TGI,[4],> 100 µM
same,TGI,[6],> 100 µM
O=C(O)C(=O)/C=C\c1ccc(Cl)cc1,TGI,[1],> 100 µM
same,TGI,[2],> 100 µM
same,TGI,[3],> 100 µM
same,TGI,[7],> 100 µM
same,TGI,[4],> 100 µM
same,TGI,[5],> 100 µM
same,TGI,[6],> 100 µM
N#CC1=C(N)Oc2c(sc3c(F)cccc23)C1c1ccc(Cl)cc1 (stereo not drawn),GI50,[3],1.28 µM
same,TGI,[3],16.3 µM
same,GI50,[8],1.85 µM
same,TGI,[8],12 µM
same,GI50,[9],3.46 µM
same,TGI,[9],16.2 µM
same,GI50,[4],3.38 µM
same,TGI,[4],11.8 µM
same,GI50,[5],2.74 µM
same,TGI,[5],9.5 µM
same,GI50,[6],4.33 µM
same,TGI,[6],16.2 µM
same,GI50,[10],3.43 µM
same,TGI,[10],25.3 µM
